Reference: ChEMBL document CHEMBL2177025, “Chemical proteomics-based analysis of off-target binding profiles for rosiglitazone and pioglitazone: clues for assessing potential for cardiotoxicity” (J Med Chem, 2012)
Active and inactive are the calls of the source. No cut-off for these calls is given here.

Columns and labels:
[1] = target: Serine/threonine-protein kinase WNK1 (Mus musculus) (UniProt P83741); assay: Binding affinity to mouse serine/threonine-protein kinase WNK1 by chromatographic analysis relative to rosiglitazone
Dystonin (Mus musculus) = Dystonin (Mus musculus) (UniProt Q91ZU6); assay: Binding affinity to mouse bullous pemphigoid antigen 1 by chromatographic analysis
[2] = target: Kalirin (Rattus norvegicus) (UniProt P97924); assay: Binding affinity to Huntingtin-associated protein-interacting protein in Sprague-Dawley rat heart homogenate after 15 mins by chromatographic analysis; format: tissue-based
[3] = target: Neurofibromin (Mus musculus) (UniProt Q04690); assay: Binding affinity to mouse neurofibromin by chromatographic analysis relative to pioglitazone
[4] = target: Protein-tyrosine kinase 2-beta (Rattus norvegicus) (UniProt P70600); assay: Binding affinity to focal adhesion kinase 2 in Sprague-Dawley rat heart homogenate after 15 mins by chromatographic analysis; format: tissue-based
[5] = target: L-lactate dehydrogenase B chain (Rattus norvegicus) (UniProt P42123); assay: Binding affinity to L-lactate dehydrogenase B chain in Sprague-Dawley rat heart homogenate after 15 mins by chromatographic analysis relative to rosiglitazone; format: tissue-based
[6] = target: Inactive tyrosine-protein kinase transmembrane receptor ROR1 (Mus musculus) (UniProt Q9Z139); assay: Binding affinity to mouse tyrosine-protein kinase transmembrane receptor ROR1 by chromatographic analysis
[7] = target: Afadin- and alpha-actinin-binding protein (Rattus norvegicus) (UniProt Q8CGZ2); assay: Binding affinity to afadin- and alpha-actinin-binding protein in Sprague-Dawley rat heart homogenate after 15 mins by chromatographic analysis; format: tissue-based
[8] = target: Glyceraldehyde-3-phosphate dehydrogenase (Rattus norvegicus) (UniProt P04797); assay: Binding affinity to glyceraldehyde 3-phosphate dehydrogenase in Sprague-Dawley rat heart homogenate after 15 mins by chromatographic analysis; format: tissue-based
[9] = target: T1, Cardiotrophin-like cytokine factor 1 (Mus musculus) (UniProt Q9QZM3); assay: Binding affinity to mouse cardiotrophin-like cytokine factor 1 by chromatographic analysis
T1 sequence (whole entry): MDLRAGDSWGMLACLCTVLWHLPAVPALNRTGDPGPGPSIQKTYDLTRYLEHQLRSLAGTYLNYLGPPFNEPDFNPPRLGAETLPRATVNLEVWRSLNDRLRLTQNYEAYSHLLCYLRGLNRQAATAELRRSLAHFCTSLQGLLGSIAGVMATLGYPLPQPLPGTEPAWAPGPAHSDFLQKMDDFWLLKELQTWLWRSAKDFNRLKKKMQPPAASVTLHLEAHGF

[10] = target: H(+)/Cl(-) exchange transporter 6 (Mus musculus) (UniProt O35454); assay: Binding affinity to mouse chloride channel protein 6 after 15 mins by chromatographic analysis
[11] = target: Voltage-dependent L-type calcium channel subunit alpha-1F (Mus musculus) (UniProt Q9JIS7); assay: Binding affinity to mouse voltage-dependent L-type calcium channel alpha-1F subunit by chromatographic analysis
[12] = target: T2, Dihydrolipoyl dehydrogenase, mitochondrial (Mus musculus) (UniProt O08749); assay: Binding affinity to mouse mitochondrial dihydrolipoyl dehydrogenase by chromatographic analysis relative to rosiglitazone
T2 sequence (whole entry): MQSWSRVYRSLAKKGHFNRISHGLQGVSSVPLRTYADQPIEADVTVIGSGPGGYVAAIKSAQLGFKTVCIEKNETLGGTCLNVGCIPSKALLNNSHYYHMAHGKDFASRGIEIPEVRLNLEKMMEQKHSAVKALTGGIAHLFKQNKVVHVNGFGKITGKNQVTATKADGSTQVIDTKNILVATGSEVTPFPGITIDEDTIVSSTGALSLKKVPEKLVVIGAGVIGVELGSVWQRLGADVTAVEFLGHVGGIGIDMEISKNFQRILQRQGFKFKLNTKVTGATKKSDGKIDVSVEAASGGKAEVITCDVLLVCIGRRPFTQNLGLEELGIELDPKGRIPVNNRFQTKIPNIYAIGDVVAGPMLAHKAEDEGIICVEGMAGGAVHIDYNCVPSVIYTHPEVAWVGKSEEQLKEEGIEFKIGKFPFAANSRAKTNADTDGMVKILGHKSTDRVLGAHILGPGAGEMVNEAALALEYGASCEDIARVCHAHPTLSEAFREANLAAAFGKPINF

[13] = target: T3, Long-chain specific acyl-CoA dehydrogenase, mitochondrial (Rattus norvegicus) (UniProt P15650); assay: Binding affinity to mitochondrial long-chain specific acyl-CoA dehydrogenase in Sprague-Dawley rat heart homogenate after 15 mins by chromatographic analysis relative to rosiglitazone; format: tissue-based
T3 sequence (whole entry): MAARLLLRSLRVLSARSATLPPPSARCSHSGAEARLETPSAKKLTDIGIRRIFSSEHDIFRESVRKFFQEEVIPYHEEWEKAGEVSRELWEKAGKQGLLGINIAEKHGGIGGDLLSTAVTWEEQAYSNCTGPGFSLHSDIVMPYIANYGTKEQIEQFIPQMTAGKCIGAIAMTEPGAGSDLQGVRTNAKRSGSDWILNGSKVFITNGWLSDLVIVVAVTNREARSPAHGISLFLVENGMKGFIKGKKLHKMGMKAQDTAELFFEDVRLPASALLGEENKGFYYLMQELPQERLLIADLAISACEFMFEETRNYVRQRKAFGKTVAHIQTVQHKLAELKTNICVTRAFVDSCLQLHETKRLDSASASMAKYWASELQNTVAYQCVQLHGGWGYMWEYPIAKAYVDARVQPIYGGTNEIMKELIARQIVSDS

Norrin (Mus musculus) = Norrin (Mus musculus) (UniProt P48744); assay: Binding affinity to mouse norrin precursor by chromatographic analysis
[14] = target: Multiple PDZ domain protein (Mus musculus) (UniProt Q8VBX6); assay: Binding affinity to mouse multiple PDZ domain protein by chromatographic analysis
[15] = target: Protein kinase C and casein kinase substrate in neurons protein 2 (Mus musculus) (UniProt Q9WVE8); assay: Binding affinity to mouse protein kinase C and casein kinase substrate in neurons protein 2 by chromatographic analysis
[16] = target: Importin-7 (Mus musculus) (UniProt Q9EPL8); assay: Binding affinity to mouse importin-7 by chromatographic analysis
[17] = target: Transcription factor SOX-5 (Mus musculus) (UniProt P35710); assay: Binding affinity to mouse transcription factor SOX-5 after 15 mins by chromatographic analysis
[18] = target: Trace amine-associated receptor 7b (Mus musculus) (UniProt Q5QD11); assay: Binding affinity to mouse trace amine-associated receptor 7b by chromatographic analysis
[19] = target: Neuronal acetylcholine receptor subunit alpha-10 (Rattus norvegicus) (UniProt Q9JLB5); assay: Binding affinity to neuronal acetylcholine receptor subunit alpha-10 in Sprague-Dawley rat heart homogenate after 15 mins by chromatographic analysis; format: tissue-based
[20] = target: Ras/Rap GTPase-activating protein SynGAP (Rattus norvegicus) (UniProt Q9QUH6); assay: Binding affinity to RasGTPase-activating protein SynGAP in Sprague-Dawley rat heart homogenate after 15 mins by chromatographic analysis relative to pioglitazone; format: tissue-based
[21] = target: ATP synthase F(1) complex subunit alpha, mitochondrial (Rattus norvegicus) (UniProt P15999); assay: Binding affinity to mitochondrial ATP synthase alpha chain in Sprague-Dawley rat heart homogenate after 15 mins by chromatographic analysis; format: tissue-based

Sequence of L-lactate dehydrogenase B chain (Rattus norvegicus) (P42123 whole entry): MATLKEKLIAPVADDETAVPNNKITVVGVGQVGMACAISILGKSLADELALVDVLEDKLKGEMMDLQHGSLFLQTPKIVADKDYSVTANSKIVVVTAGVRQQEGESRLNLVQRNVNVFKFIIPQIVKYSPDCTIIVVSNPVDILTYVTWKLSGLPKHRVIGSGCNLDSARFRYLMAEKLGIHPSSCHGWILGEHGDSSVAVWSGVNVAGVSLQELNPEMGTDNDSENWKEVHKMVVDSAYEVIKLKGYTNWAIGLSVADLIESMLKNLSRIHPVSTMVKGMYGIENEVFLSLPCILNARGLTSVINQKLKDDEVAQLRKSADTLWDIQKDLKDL
Sequence of H(+)/Cl(-) exchange transporter 6 (Mus musculus) (O35454 whole entry): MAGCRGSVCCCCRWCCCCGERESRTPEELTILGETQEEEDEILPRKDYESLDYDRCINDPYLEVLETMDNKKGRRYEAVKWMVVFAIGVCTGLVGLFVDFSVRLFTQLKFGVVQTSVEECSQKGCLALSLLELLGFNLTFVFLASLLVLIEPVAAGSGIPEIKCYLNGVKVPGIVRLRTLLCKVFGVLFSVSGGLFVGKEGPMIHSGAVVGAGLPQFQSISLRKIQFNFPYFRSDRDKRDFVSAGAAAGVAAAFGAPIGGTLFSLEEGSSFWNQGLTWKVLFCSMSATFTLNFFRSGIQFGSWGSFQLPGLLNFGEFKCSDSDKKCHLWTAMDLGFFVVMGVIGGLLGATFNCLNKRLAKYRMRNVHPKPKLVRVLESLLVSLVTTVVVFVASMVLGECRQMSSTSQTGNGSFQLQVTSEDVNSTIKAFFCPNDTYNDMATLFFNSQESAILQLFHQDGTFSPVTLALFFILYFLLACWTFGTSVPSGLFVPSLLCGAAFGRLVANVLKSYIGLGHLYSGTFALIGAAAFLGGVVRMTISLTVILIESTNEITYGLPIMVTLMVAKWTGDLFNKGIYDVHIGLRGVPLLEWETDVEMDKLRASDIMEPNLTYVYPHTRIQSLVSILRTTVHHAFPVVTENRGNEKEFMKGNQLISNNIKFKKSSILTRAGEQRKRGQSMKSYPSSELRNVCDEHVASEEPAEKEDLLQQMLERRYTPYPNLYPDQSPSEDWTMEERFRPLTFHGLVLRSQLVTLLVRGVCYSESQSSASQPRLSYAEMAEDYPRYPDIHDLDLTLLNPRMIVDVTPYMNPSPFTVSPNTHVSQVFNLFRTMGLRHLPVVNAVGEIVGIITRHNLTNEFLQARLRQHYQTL
Sequence of Ras/Rap GTPase-activating protein SynGAP (Rattus norvegicus) (Q9QUH6 whole entry): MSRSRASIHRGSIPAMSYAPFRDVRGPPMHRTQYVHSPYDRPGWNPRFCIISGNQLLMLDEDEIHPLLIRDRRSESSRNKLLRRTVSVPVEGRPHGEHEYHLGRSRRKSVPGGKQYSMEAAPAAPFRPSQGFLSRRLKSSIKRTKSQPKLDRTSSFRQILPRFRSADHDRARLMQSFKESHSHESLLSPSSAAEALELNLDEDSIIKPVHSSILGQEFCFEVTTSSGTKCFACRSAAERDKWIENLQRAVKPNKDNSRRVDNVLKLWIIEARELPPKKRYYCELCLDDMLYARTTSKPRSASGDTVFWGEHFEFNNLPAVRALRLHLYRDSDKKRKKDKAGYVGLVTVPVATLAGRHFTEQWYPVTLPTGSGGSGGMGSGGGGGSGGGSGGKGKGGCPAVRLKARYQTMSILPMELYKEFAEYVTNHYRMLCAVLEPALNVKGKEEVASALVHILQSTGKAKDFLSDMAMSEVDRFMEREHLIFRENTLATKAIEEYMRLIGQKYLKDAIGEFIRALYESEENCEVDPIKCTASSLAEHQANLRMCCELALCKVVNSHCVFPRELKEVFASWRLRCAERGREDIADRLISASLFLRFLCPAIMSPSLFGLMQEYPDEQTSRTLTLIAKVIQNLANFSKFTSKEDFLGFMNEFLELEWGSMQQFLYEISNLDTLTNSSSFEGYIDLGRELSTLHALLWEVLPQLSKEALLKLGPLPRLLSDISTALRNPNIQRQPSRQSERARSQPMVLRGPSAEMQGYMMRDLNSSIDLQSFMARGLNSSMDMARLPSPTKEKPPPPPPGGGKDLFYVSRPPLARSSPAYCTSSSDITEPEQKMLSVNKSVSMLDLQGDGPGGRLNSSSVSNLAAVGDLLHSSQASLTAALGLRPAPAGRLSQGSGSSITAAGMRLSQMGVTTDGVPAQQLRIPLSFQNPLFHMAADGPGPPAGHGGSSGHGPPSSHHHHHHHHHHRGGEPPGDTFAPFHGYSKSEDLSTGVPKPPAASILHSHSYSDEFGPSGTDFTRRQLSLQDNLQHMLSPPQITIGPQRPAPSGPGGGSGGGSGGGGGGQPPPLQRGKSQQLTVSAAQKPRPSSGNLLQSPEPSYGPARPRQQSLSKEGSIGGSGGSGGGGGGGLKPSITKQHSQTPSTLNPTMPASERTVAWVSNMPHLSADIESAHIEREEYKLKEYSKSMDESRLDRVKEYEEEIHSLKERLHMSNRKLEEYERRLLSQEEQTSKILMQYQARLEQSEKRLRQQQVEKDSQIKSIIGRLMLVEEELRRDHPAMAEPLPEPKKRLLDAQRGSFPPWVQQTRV
Sequence of Norrin (Mus musculus) (P48744 whole entry, the tested form may be a part): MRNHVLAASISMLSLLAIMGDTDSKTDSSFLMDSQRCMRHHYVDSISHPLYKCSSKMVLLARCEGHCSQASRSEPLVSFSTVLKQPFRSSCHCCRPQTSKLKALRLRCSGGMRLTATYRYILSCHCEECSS
Sequence of Protein-tyrosine kinase 2-beta (Rattus norvegicus) (P70600 whole entry): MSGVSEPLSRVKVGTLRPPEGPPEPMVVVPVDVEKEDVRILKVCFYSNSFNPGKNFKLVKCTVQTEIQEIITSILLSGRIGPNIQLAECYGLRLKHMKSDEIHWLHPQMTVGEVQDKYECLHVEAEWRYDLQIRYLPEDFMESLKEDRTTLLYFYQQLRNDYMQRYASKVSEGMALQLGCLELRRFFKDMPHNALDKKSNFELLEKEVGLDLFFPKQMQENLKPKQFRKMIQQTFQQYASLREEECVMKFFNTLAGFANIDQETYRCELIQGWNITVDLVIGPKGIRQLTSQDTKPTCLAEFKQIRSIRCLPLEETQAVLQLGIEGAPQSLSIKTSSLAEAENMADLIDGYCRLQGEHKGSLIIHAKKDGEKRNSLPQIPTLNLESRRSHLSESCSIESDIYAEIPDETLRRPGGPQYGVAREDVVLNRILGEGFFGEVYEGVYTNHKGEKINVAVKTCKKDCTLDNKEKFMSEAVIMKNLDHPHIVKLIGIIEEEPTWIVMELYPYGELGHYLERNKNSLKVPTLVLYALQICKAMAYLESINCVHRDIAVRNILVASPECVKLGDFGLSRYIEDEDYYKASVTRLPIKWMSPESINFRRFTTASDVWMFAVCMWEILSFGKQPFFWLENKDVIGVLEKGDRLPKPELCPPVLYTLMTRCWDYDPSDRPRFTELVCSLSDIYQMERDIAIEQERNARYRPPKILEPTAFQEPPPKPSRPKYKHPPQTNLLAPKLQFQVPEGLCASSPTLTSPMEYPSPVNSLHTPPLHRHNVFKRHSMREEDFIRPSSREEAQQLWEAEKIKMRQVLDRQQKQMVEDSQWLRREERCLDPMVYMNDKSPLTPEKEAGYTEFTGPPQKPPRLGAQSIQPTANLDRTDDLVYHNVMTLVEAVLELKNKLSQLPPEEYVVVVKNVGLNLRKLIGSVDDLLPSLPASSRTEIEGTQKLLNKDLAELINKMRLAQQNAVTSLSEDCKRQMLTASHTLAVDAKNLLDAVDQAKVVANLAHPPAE
Sequence of Trace amine-associated receptor 7b (Mus musculus) (Q5QD11 whole entry): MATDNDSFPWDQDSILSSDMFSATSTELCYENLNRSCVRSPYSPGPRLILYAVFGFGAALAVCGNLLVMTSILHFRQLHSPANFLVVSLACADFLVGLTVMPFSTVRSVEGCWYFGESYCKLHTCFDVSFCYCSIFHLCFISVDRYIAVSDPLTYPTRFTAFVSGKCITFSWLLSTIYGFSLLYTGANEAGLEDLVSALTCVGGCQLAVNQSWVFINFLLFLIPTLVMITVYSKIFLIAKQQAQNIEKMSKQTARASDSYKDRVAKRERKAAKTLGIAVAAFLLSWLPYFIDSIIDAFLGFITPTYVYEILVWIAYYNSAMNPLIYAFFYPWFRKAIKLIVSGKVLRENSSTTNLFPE
Sequence of Transcription factor SOX-5 (Mus musculus) (P35710 whole entry): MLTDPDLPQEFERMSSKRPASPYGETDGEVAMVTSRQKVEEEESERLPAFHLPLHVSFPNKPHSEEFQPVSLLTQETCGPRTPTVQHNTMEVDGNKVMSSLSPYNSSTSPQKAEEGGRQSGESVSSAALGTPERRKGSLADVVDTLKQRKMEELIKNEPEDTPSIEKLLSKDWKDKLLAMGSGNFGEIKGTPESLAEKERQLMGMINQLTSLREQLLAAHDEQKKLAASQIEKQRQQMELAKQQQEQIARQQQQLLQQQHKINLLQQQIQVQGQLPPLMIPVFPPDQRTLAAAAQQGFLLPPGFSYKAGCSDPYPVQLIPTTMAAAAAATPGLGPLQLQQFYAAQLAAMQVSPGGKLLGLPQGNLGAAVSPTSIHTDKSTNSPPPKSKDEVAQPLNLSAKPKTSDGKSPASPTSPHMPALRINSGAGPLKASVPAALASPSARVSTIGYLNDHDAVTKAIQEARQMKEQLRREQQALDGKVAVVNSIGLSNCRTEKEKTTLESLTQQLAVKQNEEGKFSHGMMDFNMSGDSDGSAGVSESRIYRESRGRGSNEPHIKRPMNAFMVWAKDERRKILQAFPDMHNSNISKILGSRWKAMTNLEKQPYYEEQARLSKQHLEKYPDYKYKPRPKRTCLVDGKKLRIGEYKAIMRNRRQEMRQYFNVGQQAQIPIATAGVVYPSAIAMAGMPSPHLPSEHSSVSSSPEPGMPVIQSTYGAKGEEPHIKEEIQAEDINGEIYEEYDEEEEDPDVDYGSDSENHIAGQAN

## CCc1ccc(CCOc2ccc(CC3SC(=O)NC3=O)cc2)nc1 (centres undefined)
[1]
  fold change (FC): 3.24
Dystonin (Mus musculus)
  Activity: Active
[2]
  Activity: Active
[3]
  Activity: Active
[4]
  Activity: Active
[5]
  Activity: Active
  fold change (FC): 2.26
[6]
  Activity: Active
[7]
  Activity: Active
[8]
  Activity: Active
[9]
  Activity: Active
[10]
  Activity: Active
[11]
  Activity: Active
[12]
  Activity: Active
  fold change (FC): 1.88
[13]
  Activity: Active
  fold change (FC): 5.78
Norrin (Mus musculus)
  Activity: inactive
[14]
  Activity: Active
[15]
  Activity: inactive
[16]
  Activity: Active
[17]
  Activity: Active
[18]
  Activity: Active
[19]
  Activity: Active
[20]
  Activity: Active
[21]
  Activity: Active

## CN(CCOc1ccc(CC2SC(=O)NC2=O)cc1)c1ccccn1 (centres undefined)
[1]
  Activity: Active
Dystonin (Mus musculus)
  Activity: Active
[2]
  Activity: Active
[3]
  fold change (FC): 3.1
[4]
  Activity: inactive
[5]
  Activity: Active
[6]
  Activity: Active
[7]
  Activity: Active
[8]
  Activity: Active
[9]
  Activity: Active
[10]
  Activity: Active
[11]
  Activity: Active
[12]
  Activity: Active
[13]
  Activity: Active
Norrin (Mus musculus)
  Activity: Active
[14]
  Activity: Active
[15]
  Activity: Active
[16]
  Activity: Active
[17]
  Activity: Active
[18]
  Activity: inactive
[19]
  Activity: Active
[20]
  fold change (FC): 2.12
[21]
  Activity: Active
